In patent US8088819B2, “Derivatives of substituted 3-phenyl-1-(phenylthienyl)propan-1-ones and of 3-phenyl-1-(phenylfuranyl) propan-1-ones, preparation and use” (priority 2006, dated 2012):

Assays:
Assay type in all cases: cell-based
hPPARgamma = target: T1, hPPARgamma (Homo sapiens, UniProt P37231); assay: PPAR activation: Gal4-hPPARγ chimera luciferase transactivation in COS-7 cells, Method 1; details: COS-7, 24 h; for Emax: maximum percentage response relative to the reference rosiglitazone, read-out: hPPARgamma % max
T1 construct: expressed in transfected cells; host or cells: COS-7 (monkey kidney fibroblasts)
T1 sequence (P37231 238-503 limits assumed): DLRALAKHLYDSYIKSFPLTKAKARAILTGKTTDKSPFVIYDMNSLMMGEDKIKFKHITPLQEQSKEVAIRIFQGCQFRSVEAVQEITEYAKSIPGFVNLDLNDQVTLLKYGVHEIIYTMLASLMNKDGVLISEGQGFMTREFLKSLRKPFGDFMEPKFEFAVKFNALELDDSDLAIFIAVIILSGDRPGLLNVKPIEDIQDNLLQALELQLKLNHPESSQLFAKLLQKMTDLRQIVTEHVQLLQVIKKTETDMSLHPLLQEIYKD
Outline: (§1)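 COS-7 cells transiently transfected with Gal4 DBD–human PPAR LBD (DEF domain) chimeras plus Gal4(RE)_TkpGL3 luciferase reporter (1/10 ratio). Compounds applied 24 h at 37 °C in serum-free medium at doses between 10^−5 and […]; luciferase read after lysis, EC50 derived.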

hPPARdelta = target: T2, hPPARdelta (Homo sapiens, UniProt Q03181); assay: PPAR activation: Gal4-hPPARδ chimera luciferase transactivation in COS-7 cells, Method 1; details: COS-7, 24 h; for Emax: maximum percentage response relative to the reference GW501516, read-out: hPPARdelta % max
T2 construct: expressed in transfected cells; host or cells: COS-7 (monkey kidney fibroblasts)
T2 sequence (Q03181 211-439 limits assumed): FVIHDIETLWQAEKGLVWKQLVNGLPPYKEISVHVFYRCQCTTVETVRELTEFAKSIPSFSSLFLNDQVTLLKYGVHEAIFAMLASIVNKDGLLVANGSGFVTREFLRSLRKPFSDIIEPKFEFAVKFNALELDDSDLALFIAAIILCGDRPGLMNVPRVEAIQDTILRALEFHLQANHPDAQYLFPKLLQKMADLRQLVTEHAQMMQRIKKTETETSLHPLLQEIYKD
Outline: as §1

[1] = system: ABCA1 gene in human macrophages (THP-1); assay: Reverse cholesterol transport: expression of the ABCA1 gene in human macrophages; details: 24 h
Method: The effect of the compounds according to the invention on reverse cholesterol transport was evaluated by measuring the expression of the ABCA1 gene (ATP-binding cassette, sub-family A, member 1; membrane transporter involved in the efflux of cholesterol) in human macrophages. The more the expression of ABCA1 is increased, the greater the stimulating action of the compound according to the invention on reverse cholesterol transport.
The THP1 human monocyte line (obtained from ATCC) is cultivated in RPMI1640 medium with addition of 25 mM Hepes (Gibco; 42401-018), 1% glutamine (Gibco; 25030-24), 1% penicillin/streptomycin (Biochrom AG; A 2213) and 10% decomplemented fetal calf serum (FCS. Gibco; 26050-088).
The cells are seeded on 24-well plates (Primaria BD Falcon) at a density of 3·10^5 cells/well and incubated at 37° C. and 5% CO2 for 72 h in the presence of 30 ng/ml of phorbol 12-myristate 13-acetate (PMA) in order to differentiate them to macrophages. […]
1 μg of total RNA (quantified based on the spectrophotometer reading) was then reverse-transcribed to complementary DNA by reaction for 1 hour at 37° C. in a total volume of 30 μl containing buffer 1× (Invitrogen), 1.5 mM of DTT, 0.18 mM of dNTPs (Promega), 200 ng of pdN6 (Amersham), 30 U of RNase inhibitor (Promega) and 1 μl of MMLV-RT (Invitrogen).
The quantitative PCR experiments were carried out using the MyiQ Single-Color Real-Time PCR Detection System (Biorad, Marnes-la-Coquette, France) and were performed using the iQ SYBR Green Supermix kit following the supplier's recommendations, in 96-well plates, on 5 μl of diluted reverse transcription reaction mixtures with a hybridization temperature of 60° C. […]
The amount of fluorescence emitted is directly proportional to the amount of complementary DNA present at the start of the reaction and amplified during PCR. […] The relative expression levels of each target are thus determined using the efficacy curves obtained with the points in the range. […]

Compound | EC50 (hPPARgamma) [nM] | Emax (hPPARgamma) [%] | EC50 (hPPARdelta) [nM] | Emax (hPPARdelta) [%] | expression of the gene coding for ABCA1 in human macrophages ([1]; at 1 μm) | expression of the gene coding for ABCA1 in human macrophages ([1]; at 300 nM)
CC(C)(Oc1ccc(CCC(=O)c2ccc(-c3ccc(C(F)(F)F)cc3)s2)c(Cl)c1Cl)C(=O)O [Compound 2, 2-(2,3-dichloro-4-(3-oxo-3-(5-(4-(trifluoromethyl)phenyl)thien-2-yl)propyl)phenoxy)-2-methylpropanoic acid] | 60 | 11 | 7 | 91 | significant increase | 
CC(C)(Oc1ccc(CCC(O)c2ccc(-c3ccc(C(F)(F)F)cc3)s2)c(Cl)c1Cl)C(=O)O (centres unmarked) [Compound 4, 2-(2,3-dichloro-4-(3-hydroxy-3-(5-(4-(trifluoromethyl)phenyl)thien-2-yl)propyl)phenoxy)-2-methylpropanoic acid] |  | 38 | 34 | 107 | significant increase | 
CC(C)(Oc1ccc(CCC(OCc2ccccc2)c2ccc(-c3ccc(C(F)(F)F)cc3)s2)c(Cl)c1Cl)C(=O)O (centres unmarked) [Compound 7, 2-(4-(3-(benzyloxy)-3-(5-(4-(trifluoromethyl)phenyl)thien-2-yl)propyl)-2,3-dichlorophenoxy)-2-methylpropanoic acid] |  |  |  |  |  | significant increase
CC(C)(Oc1ccc(CCC(=O)c2cc(-c3ccc(C(F)(F)F)cc3)cs2)c(Cl)c1Cl)C(=O)O [Compound 11, 2-(2,3-dichloro-4-(3-oxo-3-(4-(4-(trifluoromethyl)phenyl)thien-2-yl)propyl)phenoxy)-2-methylpropanoic acid] | 1170 | 55 | 3 | 105 |  | 
